How the values were obtained:
Format in all cases: functional
[1] = system: NCI-H460; experiment: Induction of apoptosis in human NCI-H460 cells assessed as necrotic cells at 8 uM after 48 hrs by Annexin V/propidium iodide staining-based flow cytometry (reference value: 6.9%)
[2] = system: NCI-H460; experiment: Cell cycle arrest in human NCI-H460 cells assessed as accumulation at S phase at 8 uM after 12 hrs by Rnase A/propidium iodide staining-based flow cytometry (reference value: 19.41%)
[3] = system: NCI-H460; experiment: Cell cycle arrest in human NCI-H460 cells assessed as accumulation at G1 phase at 5 uM after 48 hrs by Rnase A/propidium iodide staining-based flow cytometry (reference value: 46.69%)
[4] = system: NCI-H460; experiment: Induction of apoptosis in human NCI-H460 cells assessed as late apoptotic cells at 8 uM after 48 hrs by Annexin V/propidium iodide staining-based flow cytometry (reference value: 14.1%)

Compound	Activity [1] [%]	Activity [2] [%]	Activity [3] [%]	Activity [4] [%]
CCOP(=O)(OCC)C(NC(=O)C(C)Oc1ccc2c(c1O)C(=O)c1ccccc1C2=O)c1ccccc1OC (configuration not stated)	3.2	15.62	56.85	18.2
CCOP(=O)(OCC)C(NC(=O)C(C)Oc1ccc2c(c1O)C(=O)c1ccccc1C2=O)c1cccc2ccccc12 (configuration not stated)	3.7	0.11	57.2	14.8
CCOP(=O)(OCC)C(NC(=O)C(C)Oc1ccc2c(c1O)C(=O)c1ccccc1C2=O)c1ccccc1F (configuration not stated)	3.2	14.65	64.52	9.3
